In patent US8648205B2, “Metal complexes of N-heterocyclic carbenes” (The University of Akron, priority 2003, dated 2014):
Several values for one entry are separate records, joined by “and”; a condition that tells them apart may be missing. Identical values can stand only once. Entries after “also recorded” stand apart in the source; their conditions may differ.

Columns and labels:
[1] = LD50 in rats, preliminary studies; conditions: rat, in vivo, imidazolium cation portion
From the text: The imidazolium salt 1,3,9-trimethyl-7-(2,3-dihyroxypropyl)xanthinium iodide represented by Formula 201 is obtained by reacting 7-(2,3-dihydroxypropyl)theophylline (Formula 200) with methyl iodide in dimethylformamide. The imidazolium salt represented by Formula 201 reacts with silver acetate in methanol to yield the N-heterocyclic carbene silver(I) acetate complex (Formula 202), which is a white solid in 34% yield (structure confirmed by X-ray crystallography). The compound represented by Formula 202 is water soluble (Ksp=82 mg/mL) and is stable for at least 7 days in water by NMR. As the compound represented by Formula 202 decomposes to release Ag^+ thereby regenerating the cationic portion of the compound of Formula 201. The imidazolium cation portion of the compound represented by Formula 201 has an LD50 in rats of >2.0 g/kg in preliminary studies.

[2] = tested on: Escherichia coli, Staphylococcus aureus, and Pseudomonas aeruginosa; experiment: agar plates overlay method, summary of Table 2; format: cell-based
Description: (§1) The usefulness of the compounds represented by Formulas 103 and 55 as antimicrobial agents was evaluated. In this test, a filter paper disc of 6 mm diameter was soaked with 20 μL of a silver compound of known concentration, and placed over a lawn of an organism in the agar plate. The diameter of the area in which growth of the organism is inhibited by the test solution was measured after an over night incubation as a measure of the relative antimicrobial activity of the silver compounds. The test organisms were Escherichia coli, Staphylococcus aureus, and Pseudomonas aeruginosa.

[3] = solubility; conditions: 37: bromide salt; 20a, 20b: bromide salts
[4] = tested on: Escherichia coli, Staphylococcus aureus, and Pseudomonas aeruginosa; conditions: supernatants, less silver chloride
[5] = tested on: Escherichia coli; format: cell-based
Description: as §1, with “In” for “The usefulness of the compounds represented by Formulas 103 and 55 as antimicrobial agents was evaluated. In”

[6] = tested on: Pseudomonas aeruginosa; format: cell-based
Description: as §1, with “In” for “The usefulness of the compounds represented by Formulas 103 and 55 as antimicrobial agents was evaluated. In”

[7] = tested on: Staphylococcus aureus; format: cell-based
Description: as §1, with “In” for “The usefulness of the compounds represented by Formulas 103 and 55 as antimicrobial agents was evaluated. In”

[8] = physchem; conditions: water
[9] = tested on: panel of E. coli; experiment: MIC for a panel of E. coli (UTI strains), 96-well plate; conditions: Escherichia coli, 16 h
[10] = tested on: bladder carcinoma-derived T24 epithelial cell line (ATCC HTB-4); experiment: In vitro toxicity, propidium iodide flow cytometry; format: cell-based
Description: A prerequisite for a topical biocide is that it confers acceptable toxicity to the tissue(s) of interest. In vitro toxicity of the compound represented by Formula 202 has been studied using the bladder carcinoma-derived T24 epithelial cell line (ATCC HTB-4). T24 cells were grown in RPMI 1640 medium available from Life Technologies (Carlsbad, Calif.) supplemented with 10% fetal bovine serum available from Sigma (St. Louis, Mo.), seeded into 24-well plates, and grown to confluence over 48 hours. Cells were washed with sterile phosphate buffered saline (PBS) and fresh warmed medium was added, either alone or containing the compound represented by Formula 202 (added to the medium at the start of the experiment to minimize premature liberation of Ag^+ from the compound represented by Formula 202) at concentrations between 5 and 50 μg/mL. After incubation for 1 to 2 hours, cells were released by treatment with 0.05% trypsin-0.02% EDTA, suspended in sorting buffer, stained with propidium iodide, and subjected to flow cytometry on a FACS Calibur instrument available from Becton Dickinson (Piscataway, N.J.).

[11] = stability (air, light, water, chloride, storage)
[12] = tested on: rats; experiment: Toxicity studies with rats, clearance by mass spectroscopy of the urine; format: in vivo
[13] = tested on: E. coli (ATCC 8739); experiment: MIC test in LB broth comparing AgNO3 and complex 106; format: cell-based; design: key: +=growth; −=no growth
[14] = tested on: P. aeruginosa (ATCC 9027); experiment: as above; format: cell-based; design: key: +=growth; −=no growth
[15] = tested on: S. aureus (ATCC 6538); experiment: as above; format: cell-based; design: key: +=growth; −=no growth
[16] = tested on: E. coli, P. aeruginosa, S. aureus; experiment: MIC test in aqueous LB broth, summary of Table 5; format: cell-based
[17] = tested on: S. aureus, P. aeruginosa, and E. coli; experiment: filter disk test and standard MIC technique; format: cell-based
[18] = Day 1, 1DF: AgNO3 1731.18, 106 1675.74 μg/mL
[19] = Day 1, 2DF: AgNO3 865.59, 106 837.87 μg/mL
[20] = Day 1, 3DF: AgNO3 432.79, 106 418.94 μg/mL
[21] = Day 1, 4DF: AgNO3 216.40, 106 209.47 μg/mL
[22] = Day 1, undiluted: AgNO3 0.50 wt/V % (3462.35 μg/mL), 106 1.38 wt/V % (3341.48 μg/mL)
[23] = Day 2, 1DF: AgNO3 1731.18, 106 1675.74 μg/mL
[24] = Day 2, 2DF: AgNO3 865.59, 106 837.87 μg/mL
[25] = Day 2, 3DF: AgNO3 432.79, 106 418.94 μg/mL
[26] = Day 2, 4DF: AgNO3 216.40, 106 209.47 μg/mL
[27] = Day 2, undiluted: AgNO3 0.50 wt/V % (3462.35 μg/mL), 106 1.38 wt/V % (3341.48 μg/mL)

SMILES: CN1CN(CC(O)CO)c2c1n(C)c(=O)n(C)c2=O (centres unmarked) [Formula 201]
- LD50 [1]: > 2000 mg/kg

SMILES: F[P-](F)(F)(F)(F)F.F[P-](F)(F)(F)(F)F.OCCn1cc[n+]2[c]1[Ag-][c]1n(CCO)cc[n+]1Cc1cccc(n1)C[n+]1ccn(CCO)[c]1[Ag-][c]1n(CCO)cc[n+]1Cc1cccc(n1)C2 [Compound 105]
- antimicrobial properties (Table 2 summary) [2]: comparable to silver nitrate
- solubility in water / aqueous media [3]: is not; also recorded: soluble in aqueous media
- antimicrobial activity compared with silver nitrate (Table 3 summary) [4]: better antimicrobial activity than silver nitrate
- Diameter of Inhibited Area [5]: 10 mm and 11.58 mm
- Diameter of Inhibited Area [6]: 12 mm and 10.25 mm
- Diameter of Inhibited Area [7]: 9 mm and 10.67 mm

SMILES: CC(=O)[O][Ag][CH]1N(C)c2c(c(=O)n(C)c(=O)n2C)N1CC(O)CO (centres unmarked) [Formula 202]
- solubility [8]: 82 mg/mL
- MIC [9]: 2 to 4 µg/mL
- loss of viability ([10]; 1 h of treatment at 5 μg/mL): ~5%
- loss of viability ([10]; 2 hours of treatment at 5 μg/mL): approximately 11%
- shelf life ([11]; room temperature): several months
- stable in solid form ([11]; solid form): a couple months
- stable in water by NMR ([11]; water): at least 7 days

SMILES: OCC[n+]1ccn(Cc2cccc(Cn3cc[n+](CCO)c3)n2)c1.[Br-].[Br-] [Formula 19a]
- toxicity [12]: low toxicity
- clearance through the kidneys ([12]; mass spectroscopy of the urine): clears within two days

SMILES: OC1(O)CN2C=CN3Cc4cccc(n4)CN4C=CN(C1)[CH]4[Ag+][CH]1N4C=CN1CC(O)(O)CN1C=CN(Cc5cccc(n5)C4)[CH]1[Ag][CH]32 [Complex 106]
- growth / no growth [13, 18]: −
- growth / no growth [13, 19]: −
- growth / no growth [13, 20]: −
- growth / no growth [13, 21]: −
- growth / no growth [13, 22]: −
- growth / no growth [13, 23]: −
- growth / no growth [13, 24]: −
- growth / no growth [13, 25]: +
- growth / no growth [13, 26]: +
- growth / no growth [13, 27]: −
- solubility in water / aqueous media [3]: sparingly soluble in water
- growth / no growth [14, 18]: −
- growth / no growth [14, 19]: −
- growth / no growth [14, 20]: −
- growth / no growth [14, 21]: −
- growth / no growth [14, 22]: −
- growth / no growth [14, 23]: −
- growth / no growth [14, 24]: −
- growth / no growth [14, 25]: +
- growth / no growth [14, 26]: +
- growth / no growth [14, 27]: −
- growth / no growth [15, 18]: −
- growth / no growth [15, 19]: −
- growth / no growth [15, 20]: −
- growth / no growth [15, 21]: −
- growth / no growth [15, 22]: −
- growth / no growth [15, 23]: −
- growth / no growth [15, 24]: −
- growth / no growth [15, 25]: +
- growth / no growth [15, 26]: +
- growth / no growth [15, 27]: −
- antimicrobial activity of the aqueous form, fold less effective than 0.5% AgNO3 ([16]; about the same amount of silver): 2 fold
- MIC ([16]; after 48 hrs of incubation, read-out: MIC concentration): 838 µg/mL
- stability in air and light [11]: air and light stable
- stability in water ([11]; 37: bromide salt, 20a, 20b: bromide salts): quick decomposition

SMILES: CC(=O)[O][Ag][CH]1N(C)c2c(n(C)c(=O)n(C)c2=O)N1C (centres unmarked) [Formula 100]
- antimicrobial activity [17]: effective antimicrobial activity
- stability in air and light [11]: air stable
